{
  "source": "paper PMC6154679",
  "about": "“Nine Different Chemical Species and Action Mechanisms of Pancreatic Lipase Ligands Screened Out from Forsythia suspensa Leaves All at One Time” (Molecules : A Journal of Synthetic Chemistry and Natural …, 2017)",
  "molecular_target": "T1, pancreatic lipase (PL) (Sus scrofa, UniProt P00591)",
  "T1 construct": "gene PNLIP",
  "T1 sequence (P00591 1-450)": "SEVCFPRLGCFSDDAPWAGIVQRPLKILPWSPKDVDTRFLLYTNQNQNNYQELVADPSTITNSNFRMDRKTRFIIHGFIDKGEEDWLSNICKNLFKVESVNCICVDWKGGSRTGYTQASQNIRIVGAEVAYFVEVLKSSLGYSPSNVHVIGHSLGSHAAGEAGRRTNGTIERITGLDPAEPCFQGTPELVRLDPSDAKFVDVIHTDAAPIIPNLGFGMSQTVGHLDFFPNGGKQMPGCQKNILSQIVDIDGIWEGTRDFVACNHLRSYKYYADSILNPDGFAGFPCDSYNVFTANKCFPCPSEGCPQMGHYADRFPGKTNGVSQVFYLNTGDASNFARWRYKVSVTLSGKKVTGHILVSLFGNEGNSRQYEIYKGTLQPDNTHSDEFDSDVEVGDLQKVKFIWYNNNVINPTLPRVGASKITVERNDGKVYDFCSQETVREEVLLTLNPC",
  "experiment": "pNPB hydrolysis assay, inhibition rate at […]",
  "type": "biochemical",
  "details": "read-out: % inhibition at 5 μg/mL",
  "data": [
    {"smiles": "CCCCCCCCCCC[C@@H](C[C@@H]1OC(=O)[C@H]1CCCCCC)OC(=O)[C@H](CC(C)C)NC=O", "note": "[Orlistat]", "values": [
      {"measurement": "inhibition at 5 µg/mL", "result": 58, "unit": "%"}
    ]}
  ]
}
